Measurements from patent US7399869B2, “Fibroblast activation protein inhibitor compounds and methods” (Genentech, Inc., priority 2005, dated 2008).
Residues, ends and D or L forms follow the SMILES beside them. *: point of attachment. CH2Cl = ClC*

Experiments:
[1] = tested on: syngeneic tumors derived from fibrosarcoma, lymphoma, melanoma, and mastocytoma cell lines; conditions: oral administration to mice; cited from earlier work
[2] = tested on: tumor cells; conditions: cited from earlier work
[3] = target: T1, FAP (Homo sapiens, UniProt Q12884); experiment: Inhibition of FAP by N-blocked boroPro compounds (progress curves); format: biochemical; set-up: FAP (amino acids 38-760); FLAG (N); made in house; host or cells: 293 cells (secreted, purified from serum-free conditioned media); conditions: cleavage of substrate L-Ala-Pro-AFC
T1 sequence (Q12884 38-760): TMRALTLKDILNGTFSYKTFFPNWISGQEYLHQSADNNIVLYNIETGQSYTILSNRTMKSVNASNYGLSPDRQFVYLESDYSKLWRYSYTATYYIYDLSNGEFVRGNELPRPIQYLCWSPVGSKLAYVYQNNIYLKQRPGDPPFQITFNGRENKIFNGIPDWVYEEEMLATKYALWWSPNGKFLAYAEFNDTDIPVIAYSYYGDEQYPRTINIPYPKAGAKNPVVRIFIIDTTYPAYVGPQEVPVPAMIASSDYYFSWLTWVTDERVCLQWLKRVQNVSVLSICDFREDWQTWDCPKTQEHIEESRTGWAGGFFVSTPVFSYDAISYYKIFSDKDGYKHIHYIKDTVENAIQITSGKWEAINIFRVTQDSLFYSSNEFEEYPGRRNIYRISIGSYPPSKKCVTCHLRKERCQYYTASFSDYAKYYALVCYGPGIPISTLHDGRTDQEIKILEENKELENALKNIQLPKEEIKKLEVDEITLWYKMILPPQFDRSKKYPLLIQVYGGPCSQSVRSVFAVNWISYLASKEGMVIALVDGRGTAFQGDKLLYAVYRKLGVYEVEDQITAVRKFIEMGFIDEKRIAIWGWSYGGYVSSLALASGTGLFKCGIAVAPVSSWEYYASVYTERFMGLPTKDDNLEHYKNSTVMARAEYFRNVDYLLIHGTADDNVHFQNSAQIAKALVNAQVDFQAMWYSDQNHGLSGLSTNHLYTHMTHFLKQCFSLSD
Procedure: (§1) The steady states of product formation in the absence (V0) and presence of inhibitor (Vi) were used to calculate apparent inhibition constants (Kiapp) by plotting V0/Vi−1 against inhibitor concentration.
(§2) Briefly, proteases were added to a reaction mixture containing inhibitor and substrate (Ac-Ala-AMC for APH, Z-Gly-Pro-AMC for POP, and Ala-Pro-AFC for all others) in assay buffer at 23° C. Protease activity was followed continuously as described above to monitor time-dependent inhibition. Data were plotted as V0/Vi−1 versus [I], where V0 is the rate if substrate hydrolysis in the absence of inhibitor, Vi is the steady state rate of substrate hydrolysis in the presence of inhibitor and [I] is the concentration of Ac-Gly-BoroPro.
(§3) KI values for inhibition of proteases by 5 were determined using the method of progress curves. Briefly, proteases (10-100 nM) were added to a reaction mixture containing inhibitor 5 (0-10 μM) and substrate AP-AFC in assay buffer at 23° C. […] Data were plotted as V0/Vi−1 versus [I], where V0 is the rate if substrate hydrolysis in the absence of inhibitor, Vi is the steady state rate of substrate hydrolysis in the presence of inhibitor and [I] is the concentration of 5. […] Ki, the true equilibrium inhibition constant was determined according to the following relationship: Ki=Kobs/(1+[S]/Km), where [S] is the concentration of substrate used in the assay and Km is the Michaelis constant for substrate cleavage.

[4] = target: T2, DPP-4 (Homo sapiens, UniProt P27487); experiment: Inhibition of DPP-4 by N-blocked boroPro compounds (progress curves); format: biochemical; set-up: DPP-4 (amino acids 39-766); FLAG (N); made in house; host or cells: 293 cells (secreted, purified from serum-free conditioned media); conditions: for FAP/DPP-4 Selectivity: DPP-4 Ki relative to FAP Ki; for Ki: cleavage of substrate L-Ala-Pro-AFC
Procedure: as §1, §2, §3

[5] = target: T1, FAP; conditions: FIG. 13
[6] = target: T2, DPP-4; conditions: FIG. 13
[7] = target: T1, FAP; experiment: Relative cleavage rates of coumarin (AMCC) dipeptide substrates by FAP; format: biochemical; set-up: FAP (amino acids 38-760); FLAG (N); made in house; host or cells: 293 cells (secreted, purified from serum-free conditioned media); conditions: P2-Pro-AMCC substrates; hydrolysis rates normalized to Gly-Pro-AMCC
Procedure: (§4) The relative cleavage rates of a variety of N-blocked, C-terminal coumarin (AMCC) Gly-Pro dipeptide substrates 6 were measured. The rates were normalized to N-unblocked Gly-Pro-AMCC for FAP and DPP-4.
(§5) To examine whether FAP could cleave other N-substituted-Gly-Pro-based substrates, N-methyl-, formyl-, succinyl-, benzyloxycarbonyl-(Z-) and biotinyl-Gly-Pro-AMCC substrates 6 were synthesized and reacted with FAP (37 nM) and DPP-4 (6.8 nM).
(§6) Amino-terminus P2 was varied with the L-amino acids: alanine, aspartic acid, glutamic acid, phenylalanine, glycine, histidine, isoleucine, lysine, leucine, methionine, asparagine, proline, glutamine, arginine, serine, threonine, valine, tryptophan, and tyrosine (from left). AMCC=2-(7-amino-4-methyl-2-oxo-2H-chromen-3-yl)acetamide. For both enzymes, the amino acid adjacent in the model dipeptide substrate had little effect where the amino-terminus was unblocked. Hydrolysis rates of other P2-Pro-AMCC substrates by FAP and DPP-4 relative to Gly-Pro-AMCC include the following in Table 6:
(§7) Protease Assays—Protease activity was monitored continuously using a SpectraMax M2 microplate reader (Molecular Devices Corp., Sunnyvale Calif.) in the kinetic mode. Assays were conducted at 23° C. in 50 mM Tris (pH 7.4), 100 mM NaCl, 1 mM EDTA. The excitation/emission wavelengths for the different fluorogenic substrates were 360/460 nm (AMC), 400/505 nm (AFC), 340/425 nm (MNA), 340/510 nm (EDANS), and 337/425 nm (Abs). Standard curves of the appropriate fluorescent product versus concentration were used to convert relative fluorescence units to nmol of product produced. Substrates in the X-Pro-AMC library were used in rate assays at 5 μM final concentration. […] The kinetic parameters were calculated from Michaelis-Menten plots (V0 versus [S]) with nonlinear regression analysis using GraphPad software. kcat values were calculated under the assumption that each protease was 100% active.

[8] = target: T1, FAP; experiment: Inhibition of FAP activity against Ala-Pro-AFC by P2-Pro-AMCC compounds; format: biochemical; set-up: FAP (amino acids 38-760); FLAG (N); made in house; host or cells: 293 cells (secreted, purified from serum-free conditioned media)
Procedure: (§8) Inhibition of FAP and DPP-4 activity against Ala-Pro-AFC by P2-Pro-AMCC compounds was measured at various concentration of the P2-Pro-AMCC compounds in Table 7.

[9] = target: T2, DPP-4; experiment: Relative cleavage rates of coumarin (AMCC) dipeptide substrates by DPP-4; format: biochemical; set-up: DPP-4 (amino acids 39-766); FLAG (N); made in house; host or cells: 293 cells (secreted, purified from serum-free conditioned media); conditions: P2-Pro-AMCC substrates; hydrolysis rates normalized to Gly-Pro-AMCC
Procedure: as §4, §5, §6, §7

[10] = target: T2, DPP-4; experiment: Inhibition of DPP-4 activity against Ala-Pro-AFC by P2-Pro-AMCC compounds; format: biochemical; set-up: DPP-4 (amino acids 39-766); FLAG (N); made in house; host or cells: 293 cells (secreted, purified from serum-free conditioned media)
Procedure: as §8

[11] = target: T1, FAP; experiment: Inhibition of recombinant FAP by cmk-based irreversible inhibitors; format: biochemical; set-up: FAP (amino acids 38-760); FLAG (N); made in house; host or cells: 293 cells (secreted, purified from serum-free conditioned media); conditions: for inhibitor concentration-dependent inhibition of FAP: 10, 100, and 500 μM inhibitor, residual activity against L-Ala-Pro-AFC; for time course of FAP activity in the presence of inhibitor: substrate L-Ala-Pro-AFC
Procedure: (§9) The cleavage activities of FAP and DPP-4 in the presence of an irreversible dipeptide inhibitor was measured (FIGS. 9-12). In each time course study (FIGS. 9-15), the protease (FAP, DPP) and the inhibitor compound were incubated together for 4 hours, then residual activity was assayed against substrate.
(§10) The cleavage activities of FAP and DPP-4 in the presence of a tetrapeptide irreversible inhibitor was measured.
(§11) Acetyl-gly-pro-chloromethyl ketone and acetyl-thre-ser-gly-pro-cmk were custom synthesized at Anaspec (San Jose, Calif.). Recombinant FAP (160 nM) and DPP-4 (160 nM) were reacted with Ac-GP-cmk or TSGP-cmk (0-500 μM) at 37° C. in 50 mM Tris-HCl, pH 7.5 containing 100 mM NaCl, and 0.1 mg/ml bovine serum albumin (assay buffer). After 6 hours, residual protease activity against AP-AFC (50 μM) was measured using a Molecular Devices M2 plate reader in the kinetic mode (excitation 400 nm, emission 505 nm). Inhibition data are graphed as residual activity relative to protease activity in the absence of inhibitor.
(§12) Inhibition of FAP and DPP-4 by the cmk-based inhibitors was studied under pseudo-first order conditions. Proteases (100 nM) were reacted with 10 μM inhibitor in assay buffer at 37° C. for increasing amounts of time. Residual protease activity was then measured using AP-AFC (50 μM) as a substrate. Pseudo-first order rate constants were calculated from the slope of plots of Ln (residual protease activity) versus time. Apparent association constants (kass) for inhibition were determined from the relationship kass=kobs/[I], where kobs is the pseudo-first order rate constant and [I] is the inhibitor concentration.

[12] = target: T2, DPP-4; experiment: Inhibition of recombinant DPP-4 by cmk-based irreversible inhibitors; format: biochemical; set-up: DPP-4 (amino acids 39-766); FLAG (N); made in house; host or cells: 293 cells (secreted, purified from serum-free conditioned media); conditions: for inhibition of DPP-4: 10, 100, and 500 μM inhibitor, residual activity against L-Ala-Pro-AFC; for time course of DPP-4 activity in the presence of inhibitor: substrate L-Ala-Pro-AFC
Procedure: as §9, §10, §11, §12

T2 sequence (P27487 39-766): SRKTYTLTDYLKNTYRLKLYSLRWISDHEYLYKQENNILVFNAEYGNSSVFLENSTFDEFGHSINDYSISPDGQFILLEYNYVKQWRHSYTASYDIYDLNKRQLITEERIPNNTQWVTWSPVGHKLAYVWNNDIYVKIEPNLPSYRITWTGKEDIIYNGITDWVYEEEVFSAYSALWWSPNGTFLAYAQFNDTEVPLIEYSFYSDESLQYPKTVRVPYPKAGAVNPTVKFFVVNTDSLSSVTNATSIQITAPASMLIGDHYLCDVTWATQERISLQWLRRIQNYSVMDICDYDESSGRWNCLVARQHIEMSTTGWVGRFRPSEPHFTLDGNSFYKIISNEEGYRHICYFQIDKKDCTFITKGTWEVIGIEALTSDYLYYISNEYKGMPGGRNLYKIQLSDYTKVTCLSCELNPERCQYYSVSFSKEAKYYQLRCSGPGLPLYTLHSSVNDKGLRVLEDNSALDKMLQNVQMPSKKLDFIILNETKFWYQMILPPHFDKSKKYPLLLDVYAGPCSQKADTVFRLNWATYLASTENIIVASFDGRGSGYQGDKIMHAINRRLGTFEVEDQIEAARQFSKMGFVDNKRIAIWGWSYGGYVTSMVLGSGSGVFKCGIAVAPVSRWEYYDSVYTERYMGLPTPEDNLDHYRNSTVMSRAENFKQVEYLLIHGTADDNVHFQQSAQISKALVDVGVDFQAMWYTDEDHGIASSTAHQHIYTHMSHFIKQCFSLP

In the case of `CC(C)[C@H](N)C(=O)N1CCC[C@H]1B(O)O` [PT-100, Val-boro-Pro], the “growth of syngeneic tumors” value [1] is listed as “slowed growth” and the “direct cytotoxic effect on tumor cells” value [2] is listed as “no direct cytotoxic effect”.

With `Cc1cccc(C)c1C(=O)NCC(=O)N1CCCC1B(O)O` (stereo not drawn) [N-(2,6-dimethylbenzoyl)-Gly-boroPro] the Ki [3] was 25 nM, the “FAP/DPP-4 Selectivity” value [4] was 44 and the Ki [4] was 1100 nM.

For “cyclohexylglycine-2-cyano-proline [CHCP]”, the “effect of inhibitor concentration on cleavage of AP-AFC by FAP” value [5] was “not inhibitor concentration dependent cleavage by FAP” and the “effect of inhibitor concentration on cleavage of AP-AFC by DPP-4” value [6] was “inhibitor concentration dependent cleavage by DPP-4”.

With `O=C(CNCc1ccccc1)N1CCCC1B(O)O` (stereo not drawn) [N-benzyl-Gly-boroPro] the Ki [3] was 48 nM, the “FAP/DPP-4 Selectivity” value [4] was 1.2 and the Ki [4] was 56 nM.

For `CC(=O)NC(CO)C(=O)NCC(=O)N1CCCC1B(O)O` (stereo not drawn) [N-Ac-Ser-Gly-boroPro], the Ki [3] was 16500 nM, the “FAP/DPP-4 Selectivity” value [4] was over 3 and the Ki [4] was over 40000 nM.

For `CC(=O)NC(CO)C(=O)N1CCCC1C(=O)Nc1ccc2c(C)c(CC(N)=O)c(=O)oc2c1` [Ac-(D-Ser)], the “Relative Hydrolysis rate by FAP” value [7] was 3, the Ki [8] was 200 nM and the “Relative Hydrolysis rate by DPP-4” value [9] was 0. For the same compound, the Ki [10] was over 2000 nM.

With `CC(=O)NC(C(=O)NC(CO)C(=O)NCC(=O)N1CCCC1C(=O)CCl)C(C)O` (stereo not drawn) [TSGP-cmk, acetyl-thre-ser-gly-pro-cmk] (Ac-TSGP-CH2Cl; configuration not given here) the “inhibitor concentration-dependent inhibition of FAP” value [11] was “almost complete”, the “time course of FAP activity in the presence of inhibitor” value [11] was “time-dependent” and the “inhibition of DPP-4” value [12] was “not substantially inhibited”. The “time course of DPP-4 activity in the presence of inhibitor” value [12] was “not time-dependent inhibited”.

With `CC(=O)NCC(=O)N1CCC[C@H]1C(=O)CCl` [Ac-Gly-Pro-cmk, Acetyl-gly-pro-chloromethyl ketone] (Ac-Gly-Pro-CH2Cl) the “inhibitor concentration-dependent inhibition of FAP” value [11] was “almost complete”, the “time course of FAP activity in the presence of inhibitor” value [11] was “time-dependent” and the “inhibition of DPP-4” value [12] was “not inhibited”. The “time course of DPP-4 activity in the presence of inhibitor” value [12] was “not time-dependent inhibited”.

With `NCCC(=O)O` [β-Ala] the “Relative Hydrolysis rate by FAP” value [7] was 2, the Ki [8] was 340 nM and the “Relative Hydrolysis rate by DPP-4” value [9] was 1. The Ki [10] was 2000 nM.

With `CC(=O)NC(C)C(=O)N1CCCC1C(=O)Nc1ccc2c(C)c(CC(N)=O)c(=O)oc2c1` [Ac-(D-Ala)] the “Relative Hydrolysis rate by FAP” value [7] was 3, the Ki [8] was 1000 nM and the “Relative Hydrolysis rate by DPP-4” value [9] was 1. It also gave a Ki [10] of over 2000 nM.
